Measurements reported in patent publication US8288548B2, “Oxazolo[5-4-b]pyridin-5-yl compounds” (Eli Lilly and Company, priority 2010, dated 2012).
pIC50: −log10 of the molar value. Where “and” joins values, the source holds several entries; their conditions need not be identical. Equal entries are not always repeated.

Experiments:
p38β MAP kinase = target: T1, p38β MAP kinase (Homo sapiens, UniProt Q15759); test: Inhibition of p38β MAP kinase enzyme activity; assay type: biochemical; conditions: 20 μM ATP
T1 construct: purchased Upstate Biotechnology/Millipore
Method: The kinase reaction buffer is prepared essentially as described above. The substrate mix is prepared by combining the following: 2840 μL Kinase Reaction Buffer, 15.0 μL ATP at 10 mM, 125 μL EGFR peptide at 4 mM (9.174 mg/ml), 18.75 μL ^33P-ATP. The p38β MAP kinase enzyme stock solution is prepared by diluting 2.25 μL of a 0.57 mg/mL solution of commercial p38β MAP kinase (Upstate Biotechnology/Millipore) in 2000 μL of reaction buffer. Stock solutions of test compounds are generated essentially as described above.
The kinase assay is performed essentially as described for p38α MAP kinase. Final reaction conditions are as follows: 25 mM HEPES pH 7.5, 4.25 mM MgCl2, 1.30 mM DTT, 0.004% TRITON® X-100, 20 μM ATP, 65 μM EGFR peptide, 0.25 ng/μL p38β MAP kinase, 4% DMSO. […] For example, Example 1 has an IC50=0.007 μM.

p38 MAP kinase [1] = test: Inhibition of p38 MAP kinase in the cell-based assay (p-MAPKAPK2 cELISA, TNFα-stimulated HeLa cells); conditions: Homo sapiens, TNFα stimulation, read-out: Relative IC50
p38 MAP kinase [2] = test: In vivo target inhibition (IVTI) of p38 MAP kinase in naïve C57BL/6 mice (p-MAPKAPK2 in PBMCs, flow cytometry); conditions: 2 hours post-dose
Method: IVTI of p38 MAP kinase is measured in peripheral blood mononuclear cells (PBMCs) of mice dosed orally with test compound using a flow cytometry assay for p-MAPKAPK2, a p38 MAP kinase substrate.
Male C57BL/6 mice (6-8 weeks old) are randomized into groups of 4. Test compound is administered by oral gavage in a 0.1 mL volume of vehicle (1% hydroxyethyl cellulose (HEC), 0.25% TWEEN® 80, 0.05% antifoam). Control animals are administered 0.1 mL vehicle with no test compound. For single dose and dose response studies, animals are sacrificed 2 hour post-dose. For time-course studies, animals are sacrificed at different time-points post-dose, typically, 1, 2, 4, 6, 18 and 24 hours. Whole blood is collected in EDTA-coated tubes (AQUISEL).
100 μL mouse whole blood is added into each EDTA tube and incubated at 37° C. for 10 minutes. […]
Samples are incubated at RT for 30 minutes. […] Samples are analyzed by flow cytometry (FACScaliber, BD). After defining the viable single cell population by side and forward scatter, the level of p-MAPKAPK2 is measured in the monocyte population defined (gated) by CD11b^hiLy6G^−.
The median fluorescence intensity in the monocyte cells is analyzed to determine the level of p-MAPKAPK2. […] Percent inhibition by test compound is determined by using the following equation: […]

T1 sequence (Q15759 whole entry): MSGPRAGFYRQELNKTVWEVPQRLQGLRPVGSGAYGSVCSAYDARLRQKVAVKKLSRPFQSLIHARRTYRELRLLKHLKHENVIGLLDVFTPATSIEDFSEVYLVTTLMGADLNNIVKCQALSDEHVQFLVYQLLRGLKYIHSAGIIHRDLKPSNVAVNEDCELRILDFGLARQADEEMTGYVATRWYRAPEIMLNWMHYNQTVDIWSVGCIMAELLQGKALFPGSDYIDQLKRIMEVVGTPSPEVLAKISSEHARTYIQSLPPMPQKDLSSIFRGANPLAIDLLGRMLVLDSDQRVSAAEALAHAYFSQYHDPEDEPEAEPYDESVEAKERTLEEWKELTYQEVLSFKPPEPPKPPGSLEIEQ

- pIC50 (p38β MAP kinase): 8.15
- pIC50 (p38 MAP kinase [1]): 8.80
SMILES: COCC[C@H](C)Nc1nc2ccc(-c3nc(C(C)(C)CO)[nH]c3-c3ccc(F)cc3F)nc2o1 [Example 1, 2-[5-(2,4-Difluorophenyl)-4-[2-[[(1S)-3-methoxy-1-methyl-propyl]amino]oxazolo[5,4-b]pyridin-5-yl]-1H-imidazol-2-yl]-2-methyl-propan-1-ol]
- Threshold Efficacious Dose for 70% inhibition (TED70) (p38 MAP kinase [2]; oral, PBMCs): 5.1 mg/kg
- Threshold Efficacious Concentration for 70% inhibition (TEC70) (p38 MAP kinase [2]; plasma): 39.4 ng/mL and 0.084 μM
